Measurements taken from ChEMBL document CHEMBL1201862, “PubChem BioAssay data set” (2004).
Values joined by “and” are separate entries in the source; they are usually repeats but may differ in a detail not shown here. Identical values can stand only once. Active and inactive are the calls of the source.

Tests used:
SUMO-activating enzyme [1] = target: T1, SUMO-activating enzyme (Homo sapiens, UniProt Q9UBT2); test: SUMOylation inhibitor hit validation, confirmation, SUMOylation inhibitor project, biochemical, AlphaScreen (AID 2018); format: functional
cells = format: functional
[2] = THP-1 cell cytotoxicity, dose response, cytotoxicity control for Vif-APOBEC3G degradation inhibitor project, THP-1 cells (AID 1117359); format: functional; conditions: Human immunodeficiency virus 1, THP-1
SUMO-activating enzyme [3] = target: T1, SUMO-activating enzyme; test: inhibitors of in vitro SUMOylation cascade, primary screen, biochemical, HTRF, uHTS (AID 2006); format: protein-complex assay
[4] = Vero E6 cell cytotoxicity, dose response, cytotoxicity control for non-replicating M. tuberculosis project, secondary assay (AID 492998); format: functional, VeroE6; conditions: Vero C1008
[5] = inhibitors of Vif binding to APOBEC3G peptide, primary screen, biochemical, TR-FRET, GST-Vif 1-94, biotin-A3G peptide, dose response retest (AID 1117319); format: functional;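 further: TR-FRET signal of purified GST-Vif binding a biotinylated A3G peptide; inhibitors lower the FRET signal by blocking Vif and A3G binding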
[6] = target: Serine/threonine-protein phosphatase PP1-alpha catalytic subunit (Homo sapiens, UniProt P62136); test: PP1 phosphatase inhibitors, dose response, biochemical, fluorescence (AID 2403);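 further: phosphatase turnover of OMFP into fluorescent 3-O-methylfluorescein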
[7] = THP-1 cell cytotoxicity, dose response, cytotoxicity control for non-replicating M. tuberculosis project (AID 489025); format: functional
[8] = target: Serine/threonine-protein phosphatase (Homo sapiens, UniProt Q9BPW0); test: Counterscreen for inhibitors of PP1: fluorescence-based biochemical high throughput dose response assay to identify inhibitors of Protein Phosphatase 5 (PP5). [Related pubchem assays: 2034 (Summary (PP5 inhibitors)), 1987 (PP5 inhibitors in singlate), 2235 (PP1 inhibitors in singlate)]
Bcl-2-like protein 10 = Bcl-2-like protein 10 (Homo sapiens, UniProt Q9HD36); test: Biochemical TR3 FP assay of Bcl-B inhibitor potency, EC50 (AID 1243); format: functional
[9] = target: T2, Tyrosine-protein phosphatase non-receptor type 22 (Homo sapiens, UniProt Q9Y2R2); format: functional
T2 sequence (Q9Y2R2 whole entry): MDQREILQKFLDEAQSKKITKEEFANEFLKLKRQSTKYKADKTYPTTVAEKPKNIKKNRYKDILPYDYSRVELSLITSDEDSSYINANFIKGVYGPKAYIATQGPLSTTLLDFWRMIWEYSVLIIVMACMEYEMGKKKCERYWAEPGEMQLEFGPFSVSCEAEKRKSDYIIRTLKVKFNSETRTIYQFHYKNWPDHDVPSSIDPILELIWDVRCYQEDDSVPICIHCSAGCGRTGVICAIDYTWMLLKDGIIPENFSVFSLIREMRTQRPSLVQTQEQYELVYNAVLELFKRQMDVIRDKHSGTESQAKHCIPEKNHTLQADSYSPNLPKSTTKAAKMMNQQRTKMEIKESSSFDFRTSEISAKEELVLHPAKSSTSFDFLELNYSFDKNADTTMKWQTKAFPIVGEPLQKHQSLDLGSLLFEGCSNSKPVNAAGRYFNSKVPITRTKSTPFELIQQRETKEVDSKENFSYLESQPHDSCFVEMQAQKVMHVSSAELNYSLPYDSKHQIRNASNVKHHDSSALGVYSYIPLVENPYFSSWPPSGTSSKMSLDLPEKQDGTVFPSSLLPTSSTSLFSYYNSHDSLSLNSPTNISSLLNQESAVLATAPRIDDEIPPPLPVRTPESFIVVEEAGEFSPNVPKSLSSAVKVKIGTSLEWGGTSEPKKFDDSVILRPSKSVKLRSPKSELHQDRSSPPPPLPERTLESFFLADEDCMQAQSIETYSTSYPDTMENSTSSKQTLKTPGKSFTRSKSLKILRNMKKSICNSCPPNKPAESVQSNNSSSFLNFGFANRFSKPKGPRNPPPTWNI

[10] = target: T3, Dual specificity protein phosphatase 6 (Rattus norvegicus, UniProt Q64346); format: functional
T3 sequence (Q64346 whole entry): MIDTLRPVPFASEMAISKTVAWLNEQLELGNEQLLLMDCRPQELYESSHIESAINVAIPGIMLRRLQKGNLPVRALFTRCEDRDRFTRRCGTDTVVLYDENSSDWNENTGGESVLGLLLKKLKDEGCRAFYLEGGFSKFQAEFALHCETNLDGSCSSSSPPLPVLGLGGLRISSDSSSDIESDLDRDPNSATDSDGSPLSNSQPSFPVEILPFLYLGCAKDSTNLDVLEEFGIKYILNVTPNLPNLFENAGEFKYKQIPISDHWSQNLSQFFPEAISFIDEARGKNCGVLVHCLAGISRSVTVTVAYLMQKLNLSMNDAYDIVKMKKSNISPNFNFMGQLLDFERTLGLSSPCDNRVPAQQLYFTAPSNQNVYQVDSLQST

[11] = target: T4, Tyrosine-protein phosphatase non-receptor type 7 (Homo sapiens, UniProt P35236); format: functional
T4 sequence (P35236 whole entry): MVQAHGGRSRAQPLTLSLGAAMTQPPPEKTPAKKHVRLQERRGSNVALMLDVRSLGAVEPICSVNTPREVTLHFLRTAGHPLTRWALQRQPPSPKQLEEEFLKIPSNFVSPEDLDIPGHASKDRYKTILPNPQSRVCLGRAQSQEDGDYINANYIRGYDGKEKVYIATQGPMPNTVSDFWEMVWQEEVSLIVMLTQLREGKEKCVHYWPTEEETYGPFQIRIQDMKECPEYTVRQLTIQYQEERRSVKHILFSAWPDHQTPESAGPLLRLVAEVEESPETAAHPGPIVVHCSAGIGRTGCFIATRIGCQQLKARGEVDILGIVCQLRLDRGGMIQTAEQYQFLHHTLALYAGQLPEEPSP

Genome polyprotein = Genome polyprotein (Hepatitis C virus, UniProt Q2Q167); test: HCV core protein dimerization inhibitors, dose response, biochemical, TR-FRET (AID 2159); parameters: species or system Hepacivirus hominis;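 further: blocks dimerization of HCV core protein measured by TR-FRET between tagged core106 pairs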
[12] = target: T4, Tyrosine-protein phosphatase non-receptor type 7; format: functional; remark: listed apart in the source
[13] = target: T3, Dual specificity protein phosphatase 6; test: MKP-3 phosphatase inhibitors, primary screen, biochemical, rat enzyme, in vitro (AID 425)
[14] = HIV-1 Env-mediated cell fusion inhibitors, dose response, CCR5-tropic Env (AID 2279); format: functional
Estrogen receptor beta = Estrogen receptor beta (Homo sapiens, UniProt Q92731); test: ERβ–SRC-3 coactivator interaction inhibitors, confirmation, orthogonal assay, biochemical, ELISA, streptavidin-HRP readout (AID 1060)
[15] = Vero cell cytotoxicity, dose response, cytotoxicity control for Vif-APOBEC3G degradation inhibitor project, Vero cells (AID 1117358); format: functional; conditions: Human immunodeficiency virus 1, Vero
NS3 = NS3 (Hepatitis C virus, UniProt A3EZJ3); test: PubChem AID 2173; parameters: species or system Hepacivirus hominis
[16] = target: T2, Tyrosine-protein phosphatase non-receptor type 22; format: functional; remark: listed apart in the source
[17] = target: Eukaryotic translation initiation factor 4E (Mus musculus, UniProt P63073); test: eIF4E–eIF4G protein interaction inhibitors, dose response, biochemical, TR-FRET (AID 855); format: functional;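 further: potency for disrupting eIF4E binding to eIF4GI seen as loss of FRET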
[18] = target: Heat shock 70 kDa protein 1A (Homo sapiens, UniProt P0DMV8); test: Hsp70 inhibitors, SAR follow-up, biochemical, fluorescence polarization (AID 1072)
[19] = target: T5, Voltage-gated N-type calcium channel alpha-1B subunit/Amyloid beta A4 precursor protein-binding family A member 1 (Homo sapiens, UniProt Q00975+Q02410); format: protein assay
[20] = target: T3, Dual specificity protein phosphatase 6
[21] = target: T5, Voltage-gated N-type calcium channel alpha-1B subunit/Amyloid beta A4 precursor protein-binding family A member 1; format: protein assay; remark: listed apart in the source
[22] = target: Heat shock cognate 71 kDa protein (Homo sapiens, UniProt P11142); test: In Vitro Hsc70 Dose Response Fluorescence Polarization Assay. [Related pubchem assays: 1072 ]
[23] = target: Glyceraldehyde-3-phosphate dehydrogenase (Homo sapiens, UniProt P04406)
[24] = Counterscreen for IDE inhibitors: Luminescence-based cell-based high throughput dose response assay to identify compounds that are cytotoxic to HEK cells. [Related pubchem assays: 434962 (Primary screen (IDE inhibitors in singlicate)), 449730 (Counterscreen (Cytotoxicity in triplicate)), 435028 (Confirmation (IDE inhibitors in triplicate)) …; format: functional; conditions: HEK293
[25] = target: T6, Corticotropin-releasing factor receptor 2/Corticotropin-releasing factor-binding protein (Homo sapiens, UniProt P24387+Q13324); test: activators of CRF receptor 2 with binding protein – uHTS hits, confirmation (AID 602473); format: functional; conditions: read-out: EC50_Mean
T6 sequence (Q13324 whole entry): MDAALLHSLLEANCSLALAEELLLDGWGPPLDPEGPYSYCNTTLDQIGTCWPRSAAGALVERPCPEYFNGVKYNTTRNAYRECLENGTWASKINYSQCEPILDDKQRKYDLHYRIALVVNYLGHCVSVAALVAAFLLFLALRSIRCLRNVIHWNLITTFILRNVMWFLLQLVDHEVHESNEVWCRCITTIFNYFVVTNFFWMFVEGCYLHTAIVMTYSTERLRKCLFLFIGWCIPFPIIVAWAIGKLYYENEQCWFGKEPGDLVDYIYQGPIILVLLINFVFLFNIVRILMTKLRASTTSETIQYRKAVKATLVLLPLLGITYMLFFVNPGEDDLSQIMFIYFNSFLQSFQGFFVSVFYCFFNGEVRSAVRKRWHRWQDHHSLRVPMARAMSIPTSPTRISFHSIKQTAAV
T6 sequence (P24387 whole entry): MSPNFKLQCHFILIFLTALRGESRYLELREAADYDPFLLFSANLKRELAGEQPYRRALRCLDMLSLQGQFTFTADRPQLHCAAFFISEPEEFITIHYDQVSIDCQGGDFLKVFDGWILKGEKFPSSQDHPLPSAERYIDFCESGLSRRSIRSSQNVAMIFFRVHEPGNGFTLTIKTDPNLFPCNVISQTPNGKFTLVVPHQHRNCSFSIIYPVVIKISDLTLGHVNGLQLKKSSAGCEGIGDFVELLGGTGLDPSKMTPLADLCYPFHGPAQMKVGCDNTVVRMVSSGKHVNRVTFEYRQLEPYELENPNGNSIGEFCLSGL

Estrogen receptor = target: T7, Estrogen receptor (Homo sapiens, UniProt P03372); test: potentiators of ERα–SRC-1 coactivator binding, dose response, biochemical, TR-FRET, ERα LBD (AID 737)
T7 sequence (P03372 whole entry): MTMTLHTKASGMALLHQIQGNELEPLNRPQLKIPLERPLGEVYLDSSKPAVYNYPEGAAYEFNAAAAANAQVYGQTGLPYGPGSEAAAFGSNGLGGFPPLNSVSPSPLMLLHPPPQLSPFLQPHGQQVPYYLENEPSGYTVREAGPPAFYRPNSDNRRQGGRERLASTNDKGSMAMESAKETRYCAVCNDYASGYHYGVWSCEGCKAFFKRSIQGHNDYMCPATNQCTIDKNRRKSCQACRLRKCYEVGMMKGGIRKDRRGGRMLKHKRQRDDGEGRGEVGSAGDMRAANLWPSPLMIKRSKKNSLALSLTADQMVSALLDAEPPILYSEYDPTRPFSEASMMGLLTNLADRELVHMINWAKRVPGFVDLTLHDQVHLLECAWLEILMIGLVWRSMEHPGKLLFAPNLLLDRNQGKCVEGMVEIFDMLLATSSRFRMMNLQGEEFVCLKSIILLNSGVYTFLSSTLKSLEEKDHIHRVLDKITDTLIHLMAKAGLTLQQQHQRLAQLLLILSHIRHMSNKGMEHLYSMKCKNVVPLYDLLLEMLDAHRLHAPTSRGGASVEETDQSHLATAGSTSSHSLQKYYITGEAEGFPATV

[26] = target: T6, Corticotropin-releasing factor receptor 2/Corticotropin-releasing factor-binding protein; test: Dose Response confirmation of uHTS hits for small molecule antagonists of the CRF-binding protein and CRF-R2 receptor complex.; format: functional; conditions: read-out: IC50_Mean

T5 sequence (Q00975 whole entry): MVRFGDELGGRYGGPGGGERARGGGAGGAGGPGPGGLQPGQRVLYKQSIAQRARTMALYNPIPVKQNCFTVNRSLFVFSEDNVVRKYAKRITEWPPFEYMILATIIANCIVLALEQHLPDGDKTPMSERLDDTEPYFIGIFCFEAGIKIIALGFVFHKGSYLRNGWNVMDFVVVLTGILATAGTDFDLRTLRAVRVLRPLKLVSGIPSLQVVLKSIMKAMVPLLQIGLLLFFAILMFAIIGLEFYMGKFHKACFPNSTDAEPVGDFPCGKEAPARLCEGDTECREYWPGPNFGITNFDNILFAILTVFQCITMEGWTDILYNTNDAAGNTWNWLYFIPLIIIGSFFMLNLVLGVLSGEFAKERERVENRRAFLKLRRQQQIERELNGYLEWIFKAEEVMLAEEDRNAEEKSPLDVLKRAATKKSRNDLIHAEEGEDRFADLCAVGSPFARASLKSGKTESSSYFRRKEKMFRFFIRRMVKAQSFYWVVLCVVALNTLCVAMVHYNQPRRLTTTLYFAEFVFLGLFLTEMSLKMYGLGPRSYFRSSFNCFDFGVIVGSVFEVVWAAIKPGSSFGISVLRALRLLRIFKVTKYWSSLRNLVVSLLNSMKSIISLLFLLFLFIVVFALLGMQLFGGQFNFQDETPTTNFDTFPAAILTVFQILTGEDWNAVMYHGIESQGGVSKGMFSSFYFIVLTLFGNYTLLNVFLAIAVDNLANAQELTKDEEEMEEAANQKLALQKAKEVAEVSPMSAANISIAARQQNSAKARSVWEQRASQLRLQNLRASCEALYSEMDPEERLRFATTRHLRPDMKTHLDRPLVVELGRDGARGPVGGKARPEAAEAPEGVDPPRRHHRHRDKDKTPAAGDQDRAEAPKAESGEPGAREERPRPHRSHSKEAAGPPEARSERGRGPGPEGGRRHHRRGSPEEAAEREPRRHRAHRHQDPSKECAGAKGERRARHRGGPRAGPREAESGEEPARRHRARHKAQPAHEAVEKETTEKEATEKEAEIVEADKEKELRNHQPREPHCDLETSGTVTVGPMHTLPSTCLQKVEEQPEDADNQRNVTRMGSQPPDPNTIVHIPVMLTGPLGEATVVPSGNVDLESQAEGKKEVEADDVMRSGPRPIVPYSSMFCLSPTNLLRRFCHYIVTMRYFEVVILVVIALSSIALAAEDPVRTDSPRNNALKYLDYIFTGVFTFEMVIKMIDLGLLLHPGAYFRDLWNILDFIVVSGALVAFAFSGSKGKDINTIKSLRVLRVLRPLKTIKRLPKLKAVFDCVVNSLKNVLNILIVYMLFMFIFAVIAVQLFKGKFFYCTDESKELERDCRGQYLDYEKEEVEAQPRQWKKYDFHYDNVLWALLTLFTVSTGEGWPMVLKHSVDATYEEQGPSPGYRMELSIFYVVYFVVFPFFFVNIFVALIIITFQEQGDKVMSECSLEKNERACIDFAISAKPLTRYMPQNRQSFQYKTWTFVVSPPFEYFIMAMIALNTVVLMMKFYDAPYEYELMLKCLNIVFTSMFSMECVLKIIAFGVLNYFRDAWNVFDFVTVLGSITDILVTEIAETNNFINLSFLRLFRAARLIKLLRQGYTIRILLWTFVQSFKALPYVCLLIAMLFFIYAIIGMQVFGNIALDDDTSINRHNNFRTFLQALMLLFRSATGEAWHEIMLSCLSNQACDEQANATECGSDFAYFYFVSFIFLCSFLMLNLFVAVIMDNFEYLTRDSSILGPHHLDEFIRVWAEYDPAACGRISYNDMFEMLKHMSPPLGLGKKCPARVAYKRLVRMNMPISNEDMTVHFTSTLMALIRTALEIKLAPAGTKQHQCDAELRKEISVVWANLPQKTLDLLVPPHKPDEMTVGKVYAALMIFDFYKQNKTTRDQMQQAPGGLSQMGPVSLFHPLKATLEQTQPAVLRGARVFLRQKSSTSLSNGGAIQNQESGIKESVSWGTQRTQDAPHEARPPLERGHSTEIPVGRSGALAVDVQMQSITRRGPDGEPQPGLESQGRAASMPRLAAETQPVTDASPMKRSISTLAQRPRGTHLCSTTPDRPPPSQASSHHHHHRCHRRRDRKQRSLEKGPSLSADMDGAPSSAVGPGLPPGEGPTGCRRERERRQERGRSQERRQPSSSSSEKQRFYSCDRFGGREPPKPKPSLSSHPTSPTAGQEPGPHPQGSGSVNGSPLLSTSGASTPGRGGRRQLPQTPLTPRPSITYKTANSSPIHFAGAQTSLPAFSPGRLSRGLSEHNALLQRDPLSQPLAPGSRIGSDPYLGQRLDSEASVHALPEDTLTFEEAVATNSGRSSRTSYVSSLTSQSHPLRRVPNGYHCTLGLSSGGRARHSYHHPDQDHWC
T5 sequence (Q02410 whole entry): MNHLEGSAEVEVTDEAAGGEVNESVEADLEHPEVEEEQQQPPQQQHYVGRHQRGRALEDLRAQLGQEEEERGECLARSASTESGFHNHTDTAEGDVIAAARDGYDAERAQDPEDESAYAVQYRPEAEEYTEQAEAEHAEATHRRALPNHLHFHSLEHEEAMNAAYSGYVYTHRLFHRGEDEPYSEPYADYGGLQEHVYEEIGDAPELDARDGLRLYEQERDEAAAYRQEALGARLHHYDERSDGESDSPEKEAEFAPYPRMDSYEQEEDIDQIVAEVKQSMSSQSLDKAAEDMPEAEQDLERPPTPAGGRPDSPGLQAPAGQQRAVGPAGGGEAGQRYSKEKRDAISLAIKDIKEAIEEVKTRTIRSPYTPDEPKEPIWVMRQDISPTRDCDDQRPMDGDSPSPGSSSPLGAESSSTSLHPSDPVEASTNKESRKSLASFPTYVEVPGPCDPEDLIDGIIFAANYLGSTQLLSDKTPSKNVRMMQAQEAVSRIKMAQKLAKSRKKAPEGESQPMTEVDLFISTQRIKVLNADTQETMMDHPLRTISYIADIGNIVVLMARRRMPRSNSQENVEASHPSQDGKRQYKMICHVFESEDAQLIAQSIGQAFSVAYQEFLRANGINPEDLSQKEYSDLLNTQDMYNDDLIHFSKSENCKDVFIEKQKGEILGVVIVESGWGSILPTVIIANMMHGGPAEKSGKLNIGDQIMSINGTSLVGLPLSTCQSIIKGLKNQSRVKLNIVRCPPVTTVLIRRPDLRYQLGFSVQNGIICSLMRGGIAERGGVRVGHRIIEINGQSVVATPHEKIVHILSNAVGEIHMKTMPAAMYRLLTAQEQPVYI
T1 sequence (Q9UBE0 whole entry): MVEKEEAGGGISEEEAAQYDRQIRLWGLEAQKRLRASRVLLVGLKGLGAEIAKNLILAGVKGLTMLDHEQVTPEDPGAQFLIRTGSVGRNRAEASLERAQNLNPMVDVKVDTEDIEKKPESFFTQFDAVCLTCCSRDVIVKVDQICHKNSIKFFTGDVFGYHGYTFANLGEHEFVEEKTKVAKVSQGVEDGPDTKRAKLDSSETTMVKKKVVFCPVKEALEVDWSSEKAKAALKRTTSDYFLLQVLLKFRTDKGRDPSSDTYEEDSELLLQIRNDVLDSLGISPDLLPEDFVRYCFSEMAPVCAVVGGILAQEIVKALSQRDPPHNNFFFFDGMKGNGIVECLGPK
T1 sequence (Q9UBT2 whole entry): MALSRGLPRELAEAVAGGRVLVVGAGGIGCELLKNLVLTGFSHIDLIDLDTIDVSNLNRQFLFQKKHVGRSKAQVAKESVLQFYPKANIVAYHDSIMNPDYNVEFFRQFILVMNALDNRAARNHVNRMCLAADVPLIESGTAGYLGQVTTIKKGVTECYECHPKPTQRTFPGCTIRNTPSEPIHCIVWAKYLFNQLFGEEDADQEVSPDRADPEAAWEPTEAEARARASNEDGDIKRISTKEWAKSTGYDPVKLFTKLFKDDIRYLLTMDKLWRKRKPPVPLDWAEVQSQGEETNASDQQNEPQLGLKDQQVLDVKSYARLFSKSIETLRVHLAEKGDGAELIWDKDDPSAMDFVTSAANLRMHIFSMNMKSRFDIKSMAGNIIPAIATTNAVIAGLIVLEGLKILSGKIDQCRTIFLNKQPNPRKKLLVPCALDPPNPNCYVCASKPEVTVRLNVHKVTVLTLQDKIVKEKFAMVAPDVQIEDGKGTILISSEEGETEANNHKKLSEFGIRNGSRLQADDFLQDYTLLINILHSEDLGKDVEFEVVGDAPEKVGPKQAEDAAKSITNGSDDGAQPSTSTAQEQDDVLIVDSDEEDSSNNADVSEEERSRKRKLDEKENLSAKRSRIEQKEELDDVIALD
Chain of Eukaryotic translation initiation factor 4E (P63073 whole entry): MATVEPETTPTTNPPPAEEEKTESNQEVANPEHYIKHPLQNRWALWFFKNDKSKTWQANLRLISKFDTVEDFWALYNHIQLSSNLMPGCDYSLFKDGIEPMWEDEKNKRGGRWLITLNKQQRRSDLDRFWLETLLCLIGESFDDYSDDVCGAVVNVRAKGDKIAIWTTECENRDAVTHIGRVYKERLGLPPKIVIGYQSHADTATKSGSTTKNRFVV
Chain of Genome polyprotein (Q2Q167 whole entry): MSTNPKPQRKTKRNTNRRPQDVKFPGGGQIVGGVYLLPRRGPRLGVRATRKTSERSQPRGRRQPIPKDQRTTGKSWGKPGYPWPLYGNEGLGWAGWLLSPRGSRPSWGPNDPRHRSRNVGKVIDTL
Chain of Bcl-2-like protein 10 (Q9HD36 whole entry): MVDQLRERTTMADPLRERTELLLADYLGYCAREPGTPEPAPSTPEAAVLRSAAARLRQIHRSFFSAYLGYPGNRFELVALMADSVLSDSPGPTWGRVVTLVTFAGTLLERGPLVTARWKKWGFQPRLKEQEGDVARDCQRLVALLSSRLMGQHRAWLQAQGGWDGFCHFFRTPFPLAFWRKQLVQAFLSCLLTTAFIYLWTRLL
Chain of Glyceraldehyde-3-phosphate dehydrogenase (P04406 whole entry): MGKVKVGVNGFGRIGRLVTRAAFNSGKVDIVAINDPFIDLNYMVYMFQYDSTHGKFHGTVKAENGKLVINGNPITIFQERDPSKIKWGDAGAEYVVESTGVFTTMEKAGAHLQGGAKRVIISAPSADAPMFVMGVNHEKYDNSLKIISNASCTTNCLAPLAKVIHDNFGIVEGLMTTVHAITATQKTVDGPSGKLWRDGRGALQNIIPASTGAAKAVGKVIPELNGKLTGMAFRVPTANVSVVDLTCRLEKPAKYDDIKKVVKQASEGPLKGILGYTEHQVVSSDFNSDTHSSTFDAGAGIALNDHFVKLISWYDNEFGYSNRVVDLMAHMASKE

With `O=C1NC(=O)C(=Cc2ccc(-c3cc(Cl)ccc3Cl)[nH]2)C(=O)N1` the IC50 (SUMO-activating enzyme [1]) was 11.6 µM (active), the IC50 (cells) was < 0.1 µM (active) and the CC50 [2] was > 40 µM (active). For the same compound, the IC50 (SUMO-activating enzyme [3]) was 16.4 µM (active), the CC50 [4] was > 20 µM (active) and the IC50 [5] was > 100 µM (active). For the same compound, the IC50 [6] was 5.6 µM (active), the CC50 [7] was 23.1 µM (active) and the IC50 [8] was > 67 µM (not active).

With `Clc1ccc(C2C=C(c3ccccc3)Nc3ncnn32)cc1` (configuration not stated) the EC50 (Bcl-2-like protein 10) was 14.2 µM (active).

In the case of `O=C(O)C1Nc2c(O)cccc2C2C=CCC12` (configuration not stated), the IC50 [9] was 8.35 µM (active), the IC50 [10] was 7.38 µM (active) and 14.6 µM (active) and the IC50 [11] was 0.503 µM (active). For the same compound, the IC50 (Genome polyprotein) was > 49.8 µM (not active), the IC50 [12] was 11.2 µM (active) and the IC50 [13] was > 10 µM (not active). For the same compound, the IC50 [14] was 29.4 µM (active), the IC50 (Estrogen receptor beta) was > 50 µM (not active) and the CC50 [15] was > 40 µM (active). The IC50 (NS3) was 3.43 µM (active), the IC50 [16] was 6.84 µM (active) and the IC50 [17] was 12.7 µM (active). The IC50 [18] was 9.87 µM (active), the IC50 [19] was 8.61 µM (active) and the IC50 [20] was 8.5 µM (active). The IC50 [21] was 4.98 µM (active), the IC50 [22] was 62 µM (active) and the IC50 [23] was 47.7 µM (active).

In the case of `Oc1nc2ccccc2c(O)c1O`, the IC50 [24] was 13.6 µM (not active).

For `COC(=O)c1ccc(CSc2nc3c(cnn3-c3ccc(F)cc3)c(=O)[nH]2)o1`, the EC50 [25] was > 53 µM (inactive), the EC50 (Estrogen receptor) was 12.9 µM (not active) and the IC50 [26] was > 47.1 µM (inactive).
